Measurements from publication PMC5218480 (PLoS ONE, 2017).

Tested on: MV-4-11 cells
Assay: Gene expression microarray analysis (Affymetrix PrimeView) and GSEA
Assay type: cell-based, human
Set-up: RFU PODN (11730768_x_at) / Fold change /veh PODN (11730768_x_at) / RFU LINC00158 (11744669_a_at) / Fold change /veh LINC00158 (11744669_a_at) / RFU DUSP10 (11751237_a_at) / Fold change /veh DUSP10 (11751237_a_at) / RFU ID3 (11757404_x_at) / Fold change /veh ID3 (11757404_x_at) / RFU PLEKHG5 (11737974_s_at) / Fold change /veh PLEKHG5 (11737974_s_at) / RFU LRRC4B (11730491_at) / Fold change /veh LRRC4B (11730491_at) / RFU GIMAP4 (11747438_a_at) / Fold change /veh GIMAP4 (11747438_a_at) / RFU KRT8 (11758183_x_at) / Fold change /veh KRT8 (11758183_x_at) / RFU CNN1 (11734310_a_at) / Fold change /veh CNN1 (11734310_a_at) / RFU VPS37D (11726825_at) / Fold change /veh VPS37D (11726825_at) / RFU C10orf10 (11716522_x_at) / Fold change /veh C10orf10 (11716522_x_at) / RFU KIR2DL2 /// KIR2DL4 /// KIR2DL5A /// KIR2DL5B /// KIR2DS1 /// KIR2DS2 /// KIR2DS3 /// KIR2DS4 /// KIR3DL3 /// KIR3DL3 /// KIR3DS1 (11738374_at) / Fold change /veh KIR2DL2 /// KIR2DL4 /// KIR2DL5A /// KIR2DL5B /// KIR2DS1 /// KIR2DS2 /// KIR2DS3 /// KIR2DS4 /// KIR3DL3 /// KIR3DL3 /// KIR3DS1 (11738374_at) / RFU C1QL1 (11718748_at) / Fold change /veh C1QL1 (11718748_at) / RFU TMPRSS4 (11747572_a_at) / Fold change /veh TMPRSS4 (11747572_a_at) / RFU HAMP (11756126_x_at) / Fold change /veh HAMP (11756126_x_at) / RFU RNFT2 (11725882_a_at) / Fold change /veh RNFT2 (11725882_a_at) / RFU NR4A2 (11747474_a_at) / Fold change /veh NR4A2 (11747474_a_at) / RFU ABCC12 (11746883_a_at) / Fold change /veh ABCC12 (11746883_a_at) / RFU TMEM136 (11760407_x_at) / Fold change /veh TMEM136 (11760407_x_at) / RFU CLDN22 /// WWC2 (11732394_at) / Fold change /veh CLDN22 /// WWC2 (11732394_at) / RFU HLA-DPB1 (11760878_x_at) / Fold change /veh HLA-DPB1 (11760878_x_at) / RFU SPINT1 (11716480_a_at) / Fold change /veh SPINT1 (11716480_a_at) / RFU GAP43 (11754022_s_at) / Fold change /veh GAP43 (11754022_s_at) / RFU A4GNT (11735810_at) / Fold change /veh A4GNT (11735810_at) / RFU PRB3 (11715151_x_at) / Fold change /veh PRB3 (11715151_x_at) / RFU TUBB4B (11761932_at) / Fold change /veh TUBB4B (11761932_at) / RFU CAPN14 (11732068_a_at) / Fold change /veh CAPN14 (11732068_a_at) / RFU TMCC2 (11721928_a_at) / Fold change /veh TMCC2 (11721928_a_at) / RFU IRGQ (11745062_a_at) / Fold change /veh IRGQ (11745062_a_at) / RFU FAM174B (11720279_a_at) / Fold change /veh FAM174B (11720279_a_at) / RFU TMPRSS4 (11748680_a_at) / Fold change /veh TMPRSS4 (11748680_a_at) / RFU FAM212B (11763350_a_at) / Fold change /veh FAM212B (11763350_a_at) / RFU PLEKHG5 (11743358_a_at) / Fold change /veh PLEKHG5 (11743358_a_at) / RFU ZSCAN30 (11745921_a_at) / Fold change /veh ZSCAN30 (11745921_a_at) / RFU CMKLR1 (11741424_a_at) / Fold change /veh CMKLR1 (11741424_a_at) / RFU LOC101060620 /// MAPK8IP1 (11723275_at) / Fold change /veh LOC101060620 /// MAPK8IP1 (11723275_at) / RFU SPTSSB (11747773_x_at) / Fold change /veh SPTSSB (11747773_x_at) / RFU PRSS12 (11739890_at) / Fold change /veh PRSS12 (11739890_at) / RFU BIN1 (11741810_x_at) / Fold change /veh BIN1 (11741810_x_at) / RFU WNT11 (11732464_a_at) / Fold change /veh WNT11 (11732464_a_at) / RFU C10orf10 (11716521_a_at) / Fold change /veh C10orf10 (11716521_a_at) / RFU C5orf56 (11738089_at) / Fold change /veh C5orf56 (11738089_at) / RFU CYB561 (11721691_x_at) / Fold change /veh CYB561 (11721691_x_at) / RFU ANKRD19P (11752326_a_at) / Fold change /veh ANKRD19P (11752326_a_at) / RFU OR2T12 /// OR2T33 /// OR2T8 (11738714_s_at) / Fold change /veh OR2T12 /// OR2T33 /// OR2T8 (11738714_s_at) / RFU VCAN (11748164_a_at) / Fold change /veh VCAN (11748164_a_at) / RFU JSRP1 (11732532_at) / Fold change /veh JSRP1 (11732532_at) / RFU KRTAP10-11 (11738290_x_at) / Fold change /veh KRTAP10-11 (11738290_x_at) / RFU MYO3A (11730013_a_at) / Fold change /veh MYO3A (11730013_a_at) / RFU EBF3 (11725865_a_at) / Fold change /veh EBF3 (11725865_a_at) / RFU CAMK2N1 (11719241_x_at) / Fold change /veh CAMK2N1 (11719241_x_at) / RFU C5orf56 (11738088_a_at) / Fold change /veh C5orf56 (11738088_a_at) / RFU OLFML3 (11715873_a_at) / Fold change /veh OLFML3 (11715873_a_at) / RFU LOC100653217 /// NTM (11731650_a_at) / Fold change /veh LOC100653217 /// NTM (11731650_a_at) / RFU MAPK11 (11762145_a_at) / Fold change /veh MAPK11 (11762145_a_at) / RFU FIZ1 (11724087_x_at) / Fold change /veh FIZ1 (11724087_x_at) / RFU OASL (11726364_x_at) / Fold change /veh OASL (11726364_x_at) / RFU SOX15 (11748057_x_at) / Fold change /veh SOX15 (11748057_x_at) / RFU CD79A (11719716_a_at) / Fold change /veh CD79A (11719716_a_at) / RFU HIST1H1D (11736915_at) / Fold change /veh HIST1H1D (11736915_at) / RFU CASKIN2 (11723855_a_at) / Fold change /veh CASKIN2 (11723855_a_at) / RFU LOC730098 (11760151_x_at) / Fold change /veh LOC730098 (11760151_x_at) / RFU OR4N2 (11742367_at) / Fold change /veh OR4N2 (11742367_at) / RFU PRRT2 (11749266_a_at) / Fold change /veh PRRT2 (11749266_a_at) / RFU SNX32 (11753110_a_at) / Fold change /veh SNX32 (11753110_a_at) / RFU CDHR5 (11726645_a_at) / Fold change /veh CDHR5 (11726645_a_at) / RFU RCAN1 (11760418_a_at) / Fold change /veh RCAN1 (11760418_a_at) / RFU FAM167A (11723789_a_at) / Fold change /veh FAM167A (11723789_a_at) / RFU FAM26E (11764081_at) / Fold change /veh FAM26E (11764081_at) / RFU ISYNA1 (11749810_s_at) / Fold change /veh ISYNA1 (11749810_s_at) / RFU ACY1 (11761880_at) / Fold change /veh ACY1 (11761880_at) / RFU 11764098_at / Fold change /veh 11764098_at / RFU SAMD14 (11745864_x_at) / Fold change /veh SAMD14 (11745864_x_at) / RFU NPB (11741838_a_at) / Fold change /veh NPB (11741838_a_at) / RFU TMPRSS6 (11731388_a_at) / Fold change /veh TMPRSS6 (11731388_a_at) / RFU KRTAP10-2 (11738614_at) / Fold change /veh KRTAP10-2 (11738614_at) / RFU ARHGAP8 /// PRR5-ARHGAP8 (11727945_x_at) / Fold change /veh ARHGAP8 /// PRR5-ARHGAP8 (11727945_x_at) / RFU KRTAP5-7 /// NADSYN1 (11734609_at) / Fold change /veh KRTAP5-7 /// NADSYN1 (11734609_at) / RFU RASL12 (11751679_a_at) / Fold change /veh RASL12 (11751679_a_at) / RFU CDKN2B (11736163_a_at) / Fold change /veh CDKN2B (11736163_a_at) / RFU PRF1 (11729649_at) / Fold change /veh PRF1 (11729649_at) / RFU, ZNF638 /// ZNF638-IT1 / Fold change vs veh, ZNF638 /// ZNF638-IT1 / RFU, PANK3 / Fold change vs veh, PANK3 / RFU, SH3YL1 / Fold change vs veh, SH3YL1 / RFU, ZEB2 / Fold change vs veh, ZEB2 / RFU, NRIP1 / Fold change vs veh, NRIP1 / RFU, PTTG1IP / Fold change vs veh, PTTG1IP / RFU, CAPN2 / Fold change vs veh, CAPN2 / RFU, MED14 / Fold change vs veh, MED14 / RFU, SNORA58 / Fold change vs veh, SNORA58 / RFU, C1orf63 / Fold change vs veh, C1orf63 / RFU, LRRFIP1 / Fold change vs veh, LRRFIP1 / RFU, NDUFAF7 / Fold change vs veh, NDUFAF7 / RFU, SLC12A2 / Fold change vs veh, SLC12A2 / RFU, IBTK / Fold change vs veh, IBTK / RFU, ESF1 / Fold change vs veh, ESF1 / Fold change vs veh, TMEM50B / RFU, TAOK1 / Fold change vs veh, TAOK1 / RFU, ACBD3 / Fold change vs veh, ACBD3 / RFU, TMA16 / Fold change vs veh, TMA16 / RFU, RWDD3 / Fold change vs veh, RWDD3 / RFU, BCAT1 / Fold change vs veh, BCAT1 / RFU, EDEM3 / Fold change vs veh, EDEM3 / RFU, TMEM33 / Fold change vs veh, TMEM33 / RFU, WDR75 / Fold change vs veh, WDR75 / RFU, AHCTF1 / Fold change vs veh, AHCTF1 / RFU, TFRC / Fold change vs veh, TFRC / RFU, ZDHHC17 / Fold change vs veh, ZDHHC17 / RFU, NOM1 / Fold change vs veh, NOM1 / RFU, ARL8B / Fold change vs veh, ARL8B / RFU, ZBTB11 / Fold change vs veh, ZBTB11 / RFU, TAMM41 / Fold change vs veh, TAMM41 / RFU, KIAA1704 /// LOC100996395 / Fold change vs veh, KIAA1704 /// LOC100996395 / RFU, ING1 / Fold change vs veh, ING1 / RFU, TRMT61B / Fold change vs veh, TRMT61B / RFU, FUBP3 / Fold change vs veh, FUBP3 / RFU, TP53 / Fold change vs veh, TP53 / RFU, TNKS2 / Fold change vs veh, TNKS2 / RFU, ZFP14 / Fold change vs veh, ZFP14 / RFU, ACTR2 / Fold change vs veh, ACTR2 / RFU, PPP3R1 / Fold change vs veh, PPP3R1 / RFU, PIK3R1 / Fold change vs veh, PIK3R1 / RFU, HNRNPA1 / Fold change vs veh, HNRNPA1 / RFU, RNF170 / Fold change vs veh, RNF170 / RFU, ZNF28 / Fold change vs veh, ZNF28 / RFU, RNGTT / Fold change vs veh, RNGTT / RFU, OGT / Fold change vs veh, OGT / RFU, BRD1 / Fold change vs veh, BRD1 / RFU, MARS / Fold change vs veh, MARS / RFU, ZNF655 / Fold change vs veh, ZNF655 / RFU, FAHD1 / Fold change vs veh, FAHD1 / RFU, BDP1 / Fold change vs veh, BDP1 / RFU, LRRCC1 / Fold change vs veh, LRRCC1 / RFU, ARID1A / Fold change vs veh, ARID1A / RFU, ZNF146 / Fold change vs veh, ZNF146 / RFU, ZNF330 / Fold change vs veh, ZNF330 / RFU, GPN3 / Fold change vs veh, GPN3 / RFU, C9orf123 / Fold change vs veh, C9orf123 / RFU, N4BP2L2 / Fold change vs veh, N4BP2L2 / RFU, ARFIP1 / Fold change vs veh, ARFIP1 / RFU, FAM179B / Fold change vs veh, FAM179B / RFU, BCL10 / Fold change vs veh, BCL10 / RFU, UHRF1BP1L / Fold change vs veh, UHRF1BP1L / RFU, BET1 / Fold change vs veh, BET1 / RFU, CNOT2 / Fold change vs veh, CNOT2 / RFU, ZNF268 / Fold change vs veh, ZNF268 / Fold change vs veh, ZNF507 / RFU, DGCR2 / Fold change vs veh, DGCR2 / RFU, WDSUB1 / Fold change vs veh, WDSUB1 / Fold change vs veh, HSP90B1 /// MIR3652 / RFU, ADSS / Fold change vs veh, ADSS / RFU, GK / Fold change vs veh, GK / RFU, ZNF148 / Fold change vs veh, ZNF148 / RFU, TAF9 / Fold change vs veh, TAF9 / RFU, SLC1A5 / Fold change vs veh, SLC1A5 / RFU, SLMO2 / Fold change vs veh, SLMO2 / RFU, ABCC4 / Fold change vs veh, ABCC4 / RFU, LOC101060439 /// RAP1B / Fold change vs veh, LOC101060439 /// RAP1B / RFU, RFX7 / Fold change vs veh, RFX7 / RFU, GTPBP10 / Fold change vs veh, GTPBP10 / RFU, CNEP1R1 / Fold change vs veh, CNEP1R1 / RFU, BIVM-ERCC5 /// ERCC5 / Fold change vs veh, BIVM-ERCC5 /// ERCC5 / RFU, ILF3 / Fold change vs veh, ILF3 / RFU 11762660_at / Fold change /veh 11762660_at / RFU VCAN (11757783_s_at) / Fold change /veh VCAN (11757783_s_at) / RFU DDX43 (11728927_at) / Fold change /veh DDX43 (11728927_at) / RFU KRT8 (11758188_x_at) / Fold change /veh KRT8 (11758188_x_at) / RFU NKD1 (11759106_at) / Fold change /veh NKD1 (11759106_at) / RFU SRD5A1 (11742802_a_at) / Fold change /veh SRD5A1 (11742802_a_at) / RFU TPSAB1 /// TPSB2 (11721975_s_at) / Fold change /veh TPSAB1 /// TPSB2 (11721975_s_at) / RFU GSTM3 (11746129_a_at) / Fold change /veh GSTM3 (11746129_a_at) / RFU IL23R (11737362_x_at) / Fold change /veh IL23R (11737362_x_at) / RFU TMEM51 (11727254_a_at) / Fold change /veh TMEM51 (11727254_a_at) / RFU PIWIL2 (11732686_x_at) / Fold change /veh PIWIL2 (11732686_x_at) / RFU ORM1 (11744905_x_at) / Fold change /veh ORM1 (11744905_x_at) / RFU CCDC152 (11743942_at) / Fold change /veh CCDC152 (11743942_at) / RFU ECM1 (11717891_a_at) / Fold change /veh ECM1 (11717891_a_at) / RFU IL23R (11748794_a_at) / Fold change /veh IL23R (11748794_a_at) / RFU TNFAIP8L3 (11732012_x_at) / Fold change /veh TNFAIP8L3 (11732012_x_at) / RFU MBOAT4 (11741988_at) / Fold change /veh MBOAT4 (11741988_at) / RFU 11764193_at / Fold change /veh 11764193_at / RFU TMEM53 (11763286_at) / Fold change /veh TMEM53 (11763286_at) / RFU MAGEB2 (11727129_at) / Fold change /veh MAGEB2 (11727129_at) / RFU TMEM200A (11744735_a_at) / Fold change /veh TMEM200A (11744735_a_at) / RFU CCDC152 (11751479_a_at) / Fold change /veh CCDC152 (11751479_a_at) / RFU FAM211A (11726209_a_at) / Fold change /veh FAM211A (11726209_a_at) / RFU RGS16 (11746705_a_at) / Fold change /veh RGS16 (11746705_a_at) / RFU VCAN (11755009_s_at) / Fold change /veh VCAN (11755009_s_at) / RFU RHOB (11743442_s_at) / Fold change /veh RHOB (11743442_s_at) / RFU RGS16 (11720943_a_at) / Fold change /veh RGS16 (11720943_a_at) / RFU RGS16 (11720944_at) / Fold change /veh RGS16 (11720944_at) / RFU, VPS4B / Fold change vs veh, VPS4B / RFU, CREB1 / Fold change vs veh, CREB1 / RFU, DNAJC13 / Fold change vs veh, DNAJC13 / RFU, GNAQ / Fold change vs veh, GNAQ / RFU, CDK5R1 / Fold change vs veh, CDK5R1 / RFU, ZRANB3 / Fold change vs veh, ZRANB3 / RFU, CUL4A / Fold change vs veh, CUL4A / RFU, CCNY / Fold change vs veh, CCNY / RFU, UFL1 / Fold change vs veh, UFL1 / RFU, COG3 / Fold change vs veh, COG3 / RFU, DIAPH2 / Fold change vs veh, DIAPH2 / RFU, SKA2 / Fold change vs veh, SKA2 / RFU, AFF3 / Fold change vs veh, AFF3 / RFU, LMF1 / Fold change vs veh, LMF1 / RFU, IPO11 / Fold change vs veh, IPO11 / RFU, DFFB / Fold change vs veh, DFFB / RFU, FOXP1 / Fold change vs veh, FOXP1 / RFU, CARD8 / Fold change vs veh, CARD8 / RFU, STRN3 / Fold change vs veh, STRN3 / RFU, ADK / Fold change vs veh, ADK / RFU, RASSF2 / Fold change vs veh, RASSF2 / RFU, WIPF1 / Fold change vs veh, WIPF1 / RFU, LARP1B / Fold change vs veh, LARP1B / RFU, RASA1 / Fold change vs veh, RASA1 / RFU, RB1 / Fold change vs veh, RB1 / RFU, PPFIA1 / Fold change vs veh, PPFIA1 / RFU, MAT2A / Fold change vs veh, MAT2A / RFU, CCT5 / Fold change vs veh, CCT5 / RFU, WDR92 / Fold change vs veh, WDR92 / RFU, CUX1 / Fold change vs veh, CUX1 / RFU, TTC7A / Fold change vs veh, TTC7A / RFU, TMEM135 / Fold change vs veh, TMEM135 / RFU, DEPTOR / Fold change vs veh, DEPTOR / RFU, CPM / Fold change vs veh, CPM / RFU, DNAJB6 / Fold change vs veh, DNAJB6 / RFU, CACNA2D3 / Fold change vs veh, CACNA2D3 / RFU, DTX4 / Fold change vs veh, DTX4 / RFU, TFCP2 / Fold change vs veh, TFCP2 / RFU, GMCL1 /// GMCL1P1 / Fold change vs veh, GMCL1 /// GMCL1P1 / RFU, AEBP2 / Fold change vs veh, AEBP2 / RFU, SNHG1 /// SNORD22 /// SNORD25 /// SNORD26 /// SNORD27 /// SNORD28 /// SNORD29 /// SNORD31 / Fold change vs veh, SNHG1 /// SNORD22 /// SNORD25 /// SNORD26 /// SNORD27 /// SNORD28 /// SNORD29 /// SNORD31 / Fold change (Aza/veh), C12orf56 (ProbeSet 11735607_a_at) / Fold change (ACY-1035/veh), C12orf56 (ProbeSet 11735607_a_at) / Fold change (Aza/veh), FGFR1OP (ProbeSet 11751329_s_at) / Fold change (ACY-1035/veh), FGFR1OP (ProbeSet 11751329_s_at) / Fold change (Aza/veh), VPS36 (ProbeSet 11739960_a_at) / Fold change (ACY-1035/veh), VPS36 (ProbeSet 11739960_a_at) / RFU SYPL1 (11715823_x_at) / Fold change /veh SYPL1 (11715823_x_at) / RFU IGFBP7 (11715501_s_at) / Fold change /veh IGFBP7 (11715501_s_at) / RFU REEP3 (11722064_at) / Fold change /veh REEP3 (11722064_at) / RFU IGLL1 (11728026_x_at) / Fold change /veh IGLL1 (11728026_x_at): dose or concentration left out as unconfirmed
Details: MV-4-11 cells, 48 hours

How did the “RFU TMEM53 (11763286_at)” value turn out when Nc1ncn([C@@H]2O[C@H](CO)[C@@H](O)[C@H]2O)c(=O)n1 [azacitidine] was run?
Its value is 26.80 RFU.
